In patent US6413974B1, “6,9,-disubstituted 2-[trans-(4-aminocyclohexyl) amino] purines” (Aventis Pharmaceuticals Inc., priority 1998, dated 2002):
pIC50: −log10 of the molar value. Values joined by “and” are separate entries in the source; they are usually repeats but may differ in a detail not shown here. Equal entries are not always repeated. Structures can show the parent of a compound that is named as a salt. Where two headings read alike, the source gives them in different places.

Assays:
cdk2/cyclin E = biological target: T1, cdk2/cyclin E (Homo sapiens, UniProt P24941); test: Cyclin-Dependent Kinase 2 Assay (cdk-2 inhibition); assay type: biochemical; settings: GST-Rb substrate, 30 min at 30° C.
T1 construct: made in house; host or cells: insect cells (baculovirus co-infection)
Method: (§1) The transformed bacteria were grown overnight to saturation, then diluted in YT broth and incubated at 37° C. for 2 h. The protein was induced by incubation with 0.1 mM isopropylthioglycoside for 3 h. Following sedimentation by centrifugation, the cells were lysed by sonication in STE buffer ([…] NaCl, 10 mM Tris, pH 8.0, 1 mM EDTA) containing 10% sarkosyl. Particulate matter was removed by centrifugation and the lysate was incubated with glutathione-Sepharose at 4° C. The beads were washed with kinase buffer and then quantitation of Coomassie blue-stained proteins separated by SDS-PAGE was performed using a protein standard of known concentration.
(§2) Pre-wet Millipore Multiscreen 96-well filter plates (0.65 μm Durapore filters) with 200 μl kinase buffer (50 mM HEPES, pH 7.5, 10 mM MgCl2, 1 mM EGTA). GST-Rb (0.5 μg) bound to glutathione-Sepharose beads is added in 50 μl per well and the solution removed by application of vacuum. […] Add 0.1 μg cdk4/cyclin D1 (insect cell lysate) to initiate assay. Incubate 30 min at 37° C. Terminate reaction by filtration on Millipore Vacuum Manifold. Wash four times with TNEN (20 mM Tris, pH 8.0, 100 mM Na Cl, 1 mM EDTA, 0.5% nonidet P-40). After drying the plates at room temperature, the filter plates were placed in adapter plates (Packard) and 40 μl of Microscint-O® (Packard) was added to each well. Top Seal A film was used to cover the plates before counting in a Top Count Scintillation Counter.
GST-Rb as described above for cdk4/cyclin D1
Assay conditions for cdk2/cyclin E were identical to those for cdk4/cyclin D1 including the substrate. The concentration of recombinant cdk2/cyclin E in the assay was 0.1 μg per 100 μl assay. Incubation was for 30 min at 30° C.

cdk4/cyclin D1 = biological target: T2, cdk4/cyclin D1 (Homo sapiens, UniProt P11802); test: Cyclin-dependent kinase 4 Assay; assay type: biochemical; settings: cdk4/cyclin D1, GST-Rb substrate, 10 μM ATP, 30 min at 37° C.; read-out: CDK4 Inhibition IC50
T2 construct: made in house; host or cells: Sf9 insect cells (Bac-to-Bac baculovirus, pFastBac)
T2 sequence (P11802 whole entry): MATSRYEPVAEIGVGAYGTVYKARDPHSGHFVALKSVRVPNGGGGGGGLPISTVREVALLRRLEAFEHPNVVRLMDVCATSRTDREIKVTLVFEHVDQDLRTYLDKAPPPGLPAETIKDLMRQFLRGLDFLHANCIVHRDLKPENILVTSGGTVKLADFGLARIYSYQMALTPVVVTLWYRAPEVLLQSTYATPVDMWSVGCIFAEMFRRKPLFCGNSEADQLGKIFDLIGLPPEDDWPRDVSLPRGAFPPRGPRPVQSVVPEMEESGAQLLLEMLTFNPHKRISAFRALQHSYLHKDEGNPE
T2 sequence (P24385 whole entry partner): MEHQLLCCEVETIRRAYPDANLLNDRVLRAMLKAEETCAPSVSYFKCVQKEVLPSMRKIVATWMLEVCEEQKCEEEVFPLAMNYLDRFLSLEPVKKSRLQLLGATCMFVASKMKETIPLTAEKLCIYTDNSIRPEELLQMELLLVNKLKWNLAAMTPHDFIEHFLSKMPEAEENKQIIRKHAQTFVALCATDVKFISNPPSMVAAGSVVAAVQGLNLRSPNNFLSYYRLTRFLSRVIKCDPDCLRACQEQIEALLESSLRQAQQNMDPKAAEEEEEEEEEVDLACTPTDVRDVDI
Method: The IC50 values for cdk-4 inhibition were by the following method:
as §1
The cDNA for human cyclin D1 was cloned by RT PCR using […] from MCF-7 cells. […] Bacmid DNA was used to transfect Sf9 insect cells to produce recombinant virus. Following plaque purification of the virus, the viral preparations were amplified until high titer stocks were acheived.
Lysates were prepared by lysis of Sf9 cells coinfected with cdk4 and cyclin D1 in 50 mM HEPES, pH 7.5, 10 mM MgCl2, 1 mM DTT, 0.1 mM phenylmethylsulfonyl fluoride, 5 μg/ml aprotinin, and 5 μg/ml leupeptin using a PARR bomb under 500 p.s.i nitrogen pressure for 5 min at 4° C. Insoluble material was sedimented at 10,000×g for 20 min at 4° C. Glycerol was added to the supernatant to 10% and stored at −80° C. in aliquots.
as §2

MDA-MB-231 = test: In vitro tumor cell proliferation, MDA-MB-231; assay type: cell-based, human; settings: read-out: In vitro Tumor Cell Proliferation (IC50, μM) Breast MDA-MB-231
Method: (§3) The proliferation of tumor cells was measured using a sulforhodamine B assay as described in Skehan, P., et al., J. Natl. Cancer Inst. […] Tumor cells were harvested with trypsin-EDTA, cells that excluded trypan blue were counted, added to 96-well plates and incubated overnight at 37° C. Drug was added to the wells following dilution in culture medium. Three days later, the medium was removed and replenished with medium containing fresh drug and incubated an additional 4 days. The cells were then fixed with 0.1 ml 10% trichloroacetic acid for 60 min at 4° C. The plates were rinsed five times with tap water, air-dried and stained for 30 min with 0.4% sulforhodamine B in 1% acetic acid and air-dried.
(§4) Alternatively, the CyQUANT cell proliferation assay was used to quantify tumor cell proliferation. Tumor cells were harvested with trypsin-EDTA, cells that excluded trypan blue were counted, added to 96-well plates and incubated overnight at 37° C. Drug was added to the wells following dilution in culture medium. Three days later the medium was removed and the plates frozen at −80° C. for at least 30 minutes.

MDA-MB-435 = test: In vitro tumor cell proliferation, MDA-MB-435; assay type: cell-based, human; settings: read-out: In vitro Tumor Cell Proliferation (IC50, μM) Breast MDA-MB-435
Method: as §3, §4

Colo-205 = test: In vitro tumor cell proliferation, Colo-205; assay type: cell-based, human; settings: read-out: In vitro Tumor Cell Proliferation (IC50, μM) Colon Colo-205
Method: as §3, §4

A549 = test: In vitro tumor cell proliferation, A549; assay type: cell-based, human; settings: read-out: In vitro Tumor Cell Proliferation (IC50, μM) Lung A549
Method: as §3, §4

DMS-114 = test: In vitro tumor cell proliferation, DMS-114; assay type: cell-based, human; settings: read-out: In vitro Tumor Cell Proliferation (IC50, μM) Lung DMS-114
Method: as §3, §4

PC-3 = test: In vitro tumor cell proliferation, PC-3; assay type: cell-based, human; settings: read-out: In vitro Tumor Cell Proliferation (IC50, μM) Prostate PC-3
Method: as §3, §4

DU 145 = test: In vitro tumor cell proliferation, DU 145; assay type: cell-based, human; settings: read-out: In vitro Tumor Cell Proliferation (IC50, μM) Prostate DUI45
Method: as §3, §4

HT-29 = test: In vitro tumor cell proliferation, HT-29; assay type: cell-based, human; settings: read-out: In vitro Tumor Cell Proliferation (IC50, μM) Colon HT-29 (converted)
Method: as §3, §4
HT-29 is a human colon adenocarcinoma, moderately well-differentiated grade II (HTB 38);

[1] = Homo sapiens, MDA-MB-231, values marked * (mark not explained)
[2] = values marked * (mark not explained), dihydrochloride
[3] = Homo sapiens, MDA-MB-435, values marked * (mark not explained)
[4] = Homo sapiens, COLO 205, values marked * (mark not explained)
[5] = Homo sapiens, A549, values marked * (mark not explained)
[6] = Homo sapiens, DMS-114, values marked * (mark not explained)
[7] = Homo sapiens, PC-3, values marked * (mark not explained)
[8] = Homo sapiens, DU-145, values marked * (mark not explained)
[9] = Homo sapiens, HT-29, values marked * (mark not explained)

pIC50 (cdk2/cyclin E)	pIC50 (cdk4/cyclin D1)	IC50 (MDA-MB-231; [1]) [µM]	IC50 (MDA-MB-231; [2]) [µM]	IC50 (MDA-MB-435; [3]) [µM]	IC50 (MDA-MB-435; [2]) [µM]	IC50 (Colo-205; [4]) [µM]	IC50 (Colo-205; [2]) [µM]	IC50 (A549; [5]) [µM]	IC50 (A549; [2]) [µM]	IC50 (DMS-114; [6]) [µM]	IC50 (DMS-114; [2]) [µM]	IC50 (PC-3; [7]) [µM]	IC50 (PC-3; [2]) [µM]	IC50 (DU 145; [8]) [µM]	IC50 (DU 145; [2]) [µM]	IC50 (HT-29; [9]) [µM]	IC50 (HT-29; [2]) [µM]	Compound
7.38	6.54 and 6.42	2.9	3.2	5.7	4.4	2.4	1.6	1.6	1.1	3.1	2.8	5.7	7.2	2.4	2.8	–	–	NCCCCNc1nc(N[C@H]2CC[C@H](N)CC2)nc2c1ncn2C1CCCC1 [Example 5, 2-[Trans-(4-aminocyclohexyl)amino]-6-[(4-aminobutyl)amino]-9-cyclopentylpurine dihydrochloride]
7.10 and 7.44	6.29 and 6.34	1.2	1.4	2.2	2.3	1.3	1.5	–	–	1.8	1	1	1.4	0.73	0.95	1.4	1.6	CCCCCNc1nc(N[C@H]2CC[C@H](N)CC2)nc2c1ncn2C1CCCC1 [Example 26, 2-[Trans-(4-aminocyclohexyl)amino]-6-(pentylamino)-9-cyclopentylpurine dihydrochloride]
7.89 and 7.59	6.54 and 7.03 and 7.12	6.7	8.5	12	11	5.1	5	12	9.3	16	17	3.4	5.9	7.5	11	–	–	N[C@H]1CC[C@H](Nc2nc(NCCCO)c3ncn(C4CCCC4)c3n2)CC1 [Example 53, 2-[Trans-(4-aminocyclohexyl)amino]-6-[(3-hydroxypropyl)amino]-9-cyclopentylpurine dihydrochloride]

Second part, the molecule before the results:

Compound	pIC50 (cdk2/cyclin E)	pIC50 (cdk4/cyclin D1)	IC50 (MDA-MB-231; [1]) [µM]	IC50 (MDA-MB-231; [2]) [µM]	IC50 (MDA-MB-435; [3]) [µM]	IC50 (MDA-MB-435; [2]) [µM]	IC50 (Colo-205; [4]) [µM]	IC50 (Colo-205; [2]) [µM]	IC50 (A549; [5]) [µM]	IC50 (A549; [2]) [µM]	IC50 (DMS-114; [6]) [µM]	IC50 (DMS-114; [2]) [µM]	IC50 (PC-3; [7]) [µM]	IC50 (PC-3; [2]) [µM]	IC50 (DU 145; [8]) [µM]	IC50 (DU 145; [2]) [µM]	IC50 (HT-29; [9]) [µM]	IC50 (HT-29; [2]) [µM]
N[C@H]1CC[C@H](Nc2nc(NCCc3cccnc3)c3ncn(C4CCCC4)c3n2)CC1 [Example 7, 2-[Trans-(4-aminocyclohexyl)amino]-6-[(3-pyridyl)-2-ethylamino]-9-cyclopentylpurine dihydrochloride]	7.22	6.52	7.9	7	11	–	6.3	7.8	15	–	16	24	8	4.6	10	9	–	–
N[C@H]1CC[C@H](Nc2nc(NCc3nc4ccccc4[nH]3)c3ncn(C4CCCC4)c3n2)CC1 [Example 19, 2-[Trans-(4-aminocyclohexyl)amino]-6-[(2-benzimidazolyl)methylamino]-9-cyclopentylpurine dihydrochloride]	6.46	7.30 and 7.00	1.9	1.7	2.7	2.3	1.3	1.4	–	–	2.7	2.9	1.2	1.5	6.4	6.1	2.7	2
NCCCCCCCCNc1nc(N[C@H]2CC[C@H](N)CC2)nc2c1ncn2C1CCCC1 [Example 56, 2-[Trans-(4-amninocyclohexyl)amino]-6-[(8-aminooctyl)amino]-9-cyclopentylpurine dihydrochloride]	6.94	6.07	2.2	3.5	3.8	3.1	3.5	6.3	2.8	2.5	–	–	2.7	4.4	4.9	3.6	2.5	3.4
